Results on 25 compounds are retold here after US10899747B2, “Biaryl piperidine amide compounds and methods of use thereof” (Athenex, Inc., priority 2017, dated 2021).

Molecules are shown by their SMILES.

Common to all, as to format: cell-based
Test [1] relates to NFAT. The experiment in a line: TCR-NFAT (luciferase-based reporter assay). To be noted: Homo sapiens; 50% inhibition concentration class. Here is the method: Jurkat T cells are transiently transfected with a DNA plasmid encoding Firefly luciferase under the transcriptional control of an appropriate regulatory element that may include multimerized NFAT, AP-1, NFκB, or CREB binding sites. Cells are co-transfected with a DNA plasmid encoding Renilla luciferase under the transcriptional control of a constitutive regulatory element (e.g., HSV-TK promoter). 24 hours following transfection, cells are collected and re-seeded in 96-well plates at a final density of 1.0×10^6 cells/ml in 150 ul assay medium. Test compounds may be included at a final concentration of ≤20 uM and generally pre-incubated with cells for 30 minutes prior to stimulation. An appropriate stimulus is added, including but not limited to, a) phorbol myristate acetate (PMA) and ionomycin, or b) stimulatory antibodies to the TCR complex (e.g., anti-CD3ε) and CD28. Cell cultures are stimulated for 4-6 hours in a humidified incubator (37 degrees C./5% CO2). Cells are than lysed and the level of Firefly luciferase and Renilla Luciferase activity is determined using a standard assay (e.g., Promega's Dual Luciferase Reporter Assay System) and plate-reading luminometer. The ratio obtained by dividing activation induced Firefly luciferase activity by the constitutive Renilla luciferase activity is calculated and used as a quantitative measurement of cell activation.
(§1) Jurkat T cells were transiently transfected with a DNA plasmid encoding Firefly luciferase under the transcriptional control of an appropriate regulatory element that may include multimerized NFAT, AP-1, NFκB, or CREB binding sites. Cells were co-transfected with a DNA plasmid encoding Renilla luciferase under the transcriptional control of a constitutive regulatory element (e.g., HSV-TK promoter). 24 hours following transfection, cells were collected and re-seeded in 96-well plates at a final density of 1.0×10^6 cells/ml in 150 ul assay medium. Compound 413 was included at a final concentration of ≤20 uM and pre-incubated with cells for 30 minutes prior to stimulation. Mitogens PMA and ionomycin were added. Cell cultures were stimulated for 4-6 hours in a humidified incubator (37° C./5% CO2). Cells were then lysed and the level of Firefly luciferase and Renilla Luciferase activity was determined using a standard assay (e.g., Promega's Dual Luciferase Reporter Assay System) and plate-reading luminometer. The ratio obtained by dividing activation induced Firefly luciferase activity by the constitutive Renilla luciferase activity was calculated and used as a quantitative measurement of cell activation.
(A reporter such as luciferase makes a cellular process visible.)

Test [2] concerns IL-2. In words: PHA-IL2 (cell activation and cytokine analysis). The settings on record: 50% inhibition concentration class. In a few lines: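 Cells were seeded in 96-well plates at 1.0-2.0×10^6 cells/ml in 150 ul of RPMI containing 0.5% fetal calf serum. Test compounds, at up to ≤20 uM, were preincubated with the cells for 30 minutes, then phytohemagglutinin (PHA) was added and cultures were stimulated for 24-48 hours at 37 degrees C./5% CO2. Supernatant IL-2 was then quantified by standard ELISA.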

The subject of test [3] is IL-2. In words: IL-2 secretion by ELISA in Jurkat T cells stimulated with PMA and ionomycin. To be noted: Homo sapiens, supernatants harvested at 20 hours, read-out: concentration required to achieve 50% inhibition (IC50) of IL-2. Here is the method: Jurkat (a transformed human T cell leukemia) cells were plated in 96-well plates at a final density of 1.0-2.0×10^6 cells/ml in 150 ul of assay medium (RPMI+0.5% fetal calf serum). Compounds 403 and 413 were included at a final concentration of ≤20 uM and pre-incubated with cells for 30 minutes prior to stimulation. Mitogens PMA and ionomycin were added to the T cell receptor (TCR) complex (e.g., anti-CD3c) and CD28. Cell cultures were stimulated for 24-48 hours in a humidified incubator (37 degrees C./5% CO2). A fraction of the culture supernatant was then harvested from each well and assayed for the presence of appropriate cytokine using standard ELISA. Cytokines analyzed was IL-2. If required, the number of cytokine producing cells can be determined using intracellular staining and flow cytometry.
More specifically, Jurkat T cells were stimulated with the mitogens PMA and ionomycin in the presence of varying concentrations of compound 403 or compound 413. Supernatants were harvested at 20 hours and analyzed for IL-2 content by ELISA. IL-2 values obtained from vehicle (DMSO) treated control wells (˜2800 pg/ml) were assigned a value of 100% and used to calculate the % inhibition achieved for each compound.
For orientation: An ELISA detects its analyte on a solid surface through an enzyme-linked reagent.

Test [4] concerns NFAT. In words: NFAT-dependent Firefly luciferase reporter assay in Jurkat T cells stimulated with PMA and ionomycin. The settings on record: Homo sapiens, PMA and ionomycin for 6 hours, read-out: concentration required to achieve 50% inhibition (IC50) of NFAT-dependent luciferase activity. As for the experimental part:
as §1, with “Mitogens PMA and ionomycin were added. Cell cultures were stimulated for 4-6 hours in a humidified incubator (37° C./5% CO2).” left out
More specifically, Jurkat T cells were co-transfected with a NFAT-dependent Firefly Luciferase reporter plasmid and a control Renilla Luciferase reporter plasmid. […] Lysates were prepared and analyzed for luciferase activity using the Dual Luciferase Reporter Assay System (Promega). […]

Take `O=C(COc1ccccc1-c1ccccc1)N1CCC(CCc2ccc(O)cc2)CC1` [Compound 100]: the IC50 was 1 to 10 µM in test [1] and less than 1 µM in test [2].

Turning to `COC(=O)c1ccc(CCC2CCN(C(=O)COc3ccccc3-c3ccccc3)CC2)cc1` [Compound 101], the IC50 in test [1] and in test [2] was less than 1 µM throughout.

Take `O=C(COc1ccccc1-c1ccccc1)N1CCC(CCc2ccc3c(c2)OCO3)CC1` [Compound 105]: the IC50 is 1 to 10 µM in test [1] and less than 1 µM in test [2].

`O=C(/C=C/c1cc2c(cc1-c1ccccc1)OCO2)N1CCC(CCc2ccc(O)cc2)CC1` [Compound 111]: the IC50 in test [1] and in test [2] was 1 to 10 µM in each case.

For the compound `O=C(COc1ccccc1-c1ccccc1)N1CCC(CCc2ccc3c(c2)OCCO3)CC1` [Compound 114], the results for the IC50 in test [1] and in test [2] were 1 to 10 µM and less than 1 µM, respectively.

With `O=C(COc1ccccc1-c1ccccc1)N1CCC(CCc2ccccc2)CC1` [Compound 118], the figures for the IC50 in test [1] and in test [2] were 10 to 50 µM and 1 to 10 µM, respectively.

As for `O=C(COc1ccccc1-c1ccccc1)N1CCC(CCc2cc(F)c(O)c(F)c2)CC1` [Compound 124], the values for the IC50 in test [1] and in test [2] were 10 to 50 µM and less than 1 µM, respectively.

Take `COc1ccc(CCC2CCN(C(=O)COc3c(C)cccc3-c3ccccc3)CC2)cc1OC` [Compound 138]: the IC50 in test [1] fell in the range of 1 to 10 µM.

Take `COc1ccc(CCC2CCN(C(=O)COc3c(C)cccc3-c3ccccc3)CC2)cc1` [Compound 139]: in test [1], the IC50 lay in the range of 10 to 50 µM.

Consider `Cc1cccc(-c2ccccc2)c1OCC(=O)N1CCC(CCc2ccc(F)cc2)CC1` [Compound 140], for which the IC50 in test [1] fell in the range of 10 to 50 µM.

Regarding `COc1ccc(CCC2CCN(C(=O)COc3cccnc3-c3ccccc3)CC2)cc1OC` [Compound 141], the IC50 in test [1] was in the range of 10 to 50 µM; in test [2], 1 to 10 µM.

In test [1], `COc1ccc(CCC2CCN(C(=O)COc3cc(F)c(F)cc3-c3ccccc3)CC2)cc1OC` [Compound 142] displayed an IC50 of 1 to 10 µM.

In turn, `O=C(COc1cc(F)c(F)cc1-c1ccccc1)N1CCC(CCc2cc(F)cc(F)c2)CC1` [Compound 143] gave an IC50 in test [1] of 10 to 50 µM.

Take `COc1ccc(CCC2CCN(C(=O)C(C)Oc3ccccc3-c3ccccc3)CC2)cc1OC` (centres unmarked) [Compound 144]: the IC50 in test [1] lay within 1 to 10 µM.

For `CCCC(Oc1ccccc1-c1ccccc1)C(=O)N1CCC(CCc2ccc(OC)c(OC)c2)CC1` (centres unmarked) [Compound 145], the IC50 in test [1] lay within 1 to 10 µM.

In the case of `COCc1ccc(CCC2CCN(C(=O)COc3ccccc3-c3ccccc3)CC2)cc1` [Compound 146], the IC50 in test [1] was 1 to 10 µM.

In turn, `CN(C)C(=O)c1ccc(CCC2CCN(C(=O)COc3ccccc3-c3ccccc3)CC2)cc1` [Compound 147] displayed an IC50 in test [1] of 1 to 10 µM.

As for `CC(C)NC(=O)c1ccc(CCC2CCN(C(=O)COc3ccccc3-c3ccccc3)CC2)cc1` [Compound 148], the IC50 in test [1] and in test [2] was 1 to 10 µM in each case.

In the case of `CC(C)(C)NC(=O)c1ccc(CCC2CCN(C(=O)COc3ccccc3-c3ccccc3)CC2)cc1` [Compound 149], in test [1], the IC50 is 1 to 10 µM.

Compound `O=C(COc1cc(OC(F)(F)F)ccc1-c1ccccc1)N1CCC(CCc2ccc3c(c2)OCO3)CC1` [Compound 150] gave an IC50 in test [1] of 10 to 50 µM.

Turning to `O=C(COc1cc(F)ccc1-c1ccccc1)N1CCC(CCc2ccc3c(c2)OCO3)CC1` [Compound 151], in test [1], the IC50 was in the range of 10 to 50 µM.

On to `O=C(COc1ccc(F)cc1-c1ccccc1)N1CCC(CCc2ccc3c(c2)OCO3)CC1` [Compound 152], for which, in test [1], the IC50 is 10 to 50 µM.

In the case of `O=C(COc1ccccc1-c1ccccc1O)N1CCC(CCc2ccc3c(c2)OCO3)CC1` [Compound 169], the IC50 in test [1] and in test [2] was less than 1 µM in each case.

For `CC(C)Oc1cccc(CCC2CCN(C(=O)COc3ccccc3-c3ccc(C#N)cc3)CC2)c1` [Compound 403], the IC50 in test [3] is 0.068 µM; in test [2] it was less than 1 µM.

`CC(C)Oc1cccc(CCC2CCN(C(=O)COc3ccc(C#N)cc3-c3ccc(C#N)cc3)CC2)c1` [Compound 413]: the IC50 was 0.018 µM in test [3], 0.009 µM in test [4] and less than 1 µM in test [2].
